TGI and GI50 data for 13 compounds are collected here from PubChem BioAssay (NCI).

Test systems include SW-620 colon; LOX IMVI melanoma; EKVX NSCLC; ACHN renal; TK-10 renal; K-562 leukemia; MALME-3M melanoma; MDA-MB-435; MDA-N; SF-539 CNS.
What all share (assay): NCI anticancer screen, dose series, 48 h

SMILES strings stand for the structures. Several values for one entry are separate records, joined by “and”; a condition that tells them apart may be missing. Equal entries are not always repeated.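 Growth conditions: 96-well plates. Treatment: test compound, 48 hours, 5 concentrations. Analysis: linear interpolation between bracketing concentrations; unreached endpoints set to highest concentration. The concentration for 50% growth inhibition is given as GI50. TGI: total growth inhibition.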

For the compound `C[C@@](Br)(C(=O)O)[C@H](Br)C(=O)O`, the TGI with SW-620 colon, in the test with LOX IMVI melanoma, with EKVX NSCLC, with ACHN renal, in the test on TK-10 renal and in the test with K-562 leukemia was > 100 µM throughout. In addition, the TGI in the test with MALME-3M melanoma, with MDA-MB-435 and in the test with MDA-N was > 100 µM each time.
In the case of `O=c1ccn([C@@H]2C=C(CO)[C@@H](O)[C@H]2O)c(=O)[nH]1`, the TGI with SW-620 colon, with LOX IMVI melanoma, in the test on SF-539 CNS and with MALME-3M melanoma was > 625 µM throughout.
On to `O=C(/C=C/CC(O)(c1ccccc1)c1ccccc1)Nc1ccccc1Cl`, for which the TGI in the test with SW-620 colon, in the test on EKVX NSCLC, in the test on ACHN renal, in the test with TK-10 renal, in the test with K-562 leukemia and with MALME-3M melanoma was > 100 µM each time.
For `CCOP(=O)(CC1OC(CO)C(O)C1O)OCC` (stereo not given), the TGI in the test on SW-620 colon, with LOX IMVI melanoma, with EKVX NSCLC, with ACHN renal, in the test with TK-10 renal and with SF-539 CNS was > 100 µM each time. For the same compound, the TGI in the test on K-562 leukemia, with MALME-3M melanoma, in the test on MDA-MB-435 and in the test on MDA-N was > 100 µM throughout.
`O=C(CCl)Nc1ccc(C(=O)N/N=C/c2ccc(Cl)cc2)cc1`: the GI50 was 3.35 µM with SW-620 colon; 1720 nM in the test with LOX IMVI melanoma; 20 µM with EKVX NSCLC; 2920 nM in the test on ACHN renal; 1830 nM in the test on TK-10 renal; 1750 nM in the test on SF-539 CNS. Besides, the GI50 is 2000 nM in the test with K-562 leukemia, 3.79 µM in the test with MALME-3M melanoma, 9.67 µM in the test with MDA-MB-435 and 11 µM with MDA-N. Besides, the TGI in the test on SW-620 colon was 6.81 µM and 7.06 µM; in the test on LOX IMVI melanoma, 3.5 µM and 2.91 µM; in the test on EKVX NSCLC, 4.02 µM and 38.5 µM; in the test on ACHN renal, 6.57 µM and 9.22 µM; in the test with TK-10 renal, 3.91 µM and 29.5 µM; in the test on SF-539 CNS, 3.29 µM and 4.35 µM. In addition, the TGI in the test on K-562 leukemia is 4.04 µM and 7.46 µM; in the test with MALME-3M melanoma it was 3.63 µM and 14.2 µM; in the test with MDA-MB-435 it was 3.27 µM and 21.7 µM; with MDA-N, 3.69 µM and 24.3 µM.
Regarding `N#Cc1ccnc(C(=O)N2CCCC2C(=O)O)c1` (stereo not given), the TGI in the test on SW-620 colon, with LOX IMVI melanoma, in the test with EKVX NSCLC, in the test on ACHN renal, with TK-10 renal and with SF-539 CNS was > 100 µM in each case. The TGI with K-562 leukemia, in the test with MALME-3M melanoma, with MDA-MB-435 and in the test with MDA-N was > 100 µM in each case.
On to `O=c1[nH]nc(-c2ccc([N+](=O)[O-])cc2)[nH]1`, for which the TGI in the test with SW-620 colon, with LOX IMVI melanoma, in the test on EKVX NSCLC, in the test on ACHN renal, with TK-10 renal and in the test with SF-539 CNS was > 100 µM each time. Moreover, the TGI in the test with K-562 leukemia, with MALME-3M melanoma, in the test on MDA-MB-435 and in the test on MDA-N was > 100 µM throughout.
Consider `COc1cccc(Nc2nc3c([nH]2)c(=O)n(C)c(=O)n3C)c1`, for which the TGI with SW-620 colon, in the test with LOX IMVI melanoma, with EKVX NSCLC, in the test on TK-10 renal, in the test on K-562 leukemia and with MALME-3M melanoma was > 10 µM throughout. Besides, the TGI in the test with MDA-MB-435 and in the test with MDA-N was > 10 µM each time.
Take `CC(Br)CN(CC(C)Br)c1ccc2c(c1)Cc1ccccc1-2` (stereo not given): the TGI was 40.2 µM in the test on SW-620 colon; 23.2 µM with LOX IMVI melanoma; 30.3 µM in the test with EKVX NSCLC; 19.5 µM with ACHN renal; 26.2 µM in the test on TK-10 renal; 33.2 µM with K-562 leukemia. Besides, the TGI with MALME-3M melanoma amounted to 24.9 µM; with MDA-MB-435, 28 µM; in the test with MDA-N, 30.7 µM.
On to `COc1ccccc1Cn1c2c(c3cc(O)ccc31)C(=O)c1ccccc1C2=O`, for which the TGI with SW-620 colon is > 100 µM; in the test with LOX IMVI melanoma it was > 100 µM; in the test with TK-10 renal, > 100 µM; in the test on SF-539 CNS it was 57.6 µM; in the test with K-562 leukemia, > 100 µM; with MALME-3M melanoma, > 100 µM. For the same compound, the TGI in the test on MDA-MB-435 and with MDA-N was > 100 µM throughout.
In the case of `CN(C)CCN1C(=O)N(CCN(C)C)c2c3cc(O)ccc3nc3c([N+](=O)[O-])ccc1c23`, the TGI with SW-620 colon was determined as 24.7 µM; with LOX IMVI melanoma it was 24.3 µM; with ACHN renal it was 19.1 µM; with TK-10 renal, 33.6 µM; with K-562 leukemia, 14.5 µM; in the test with MALME-3M melanoma, 29.6 µM. For the same compound, the TGI in the test with MDA-MB-435 was determined as 32.9 µM; with MDA-N, 26.7 µM.
In the case of `Fc1ccc(OCc2ccc3nc(-c4ccccc4)c(Cl)nc3c2)cc1`, the TGI with SW-620 colon is > 100 µM; in the test with LOX IMVI melanoma, > 100 µM; in the test with EKVX NSCLC it was > 100 µM; in the test with ACHN renal, 71.7 µM; in the test on TK-10 renal, 90.1 µM; in the test with SF-539 CNS, 51.8 µM. For the same compound, the TGI was 35.9 µM in the test on MALME-3M melanoma, > 100 µM in the test with MDA-MB-435 and > 100 µM with MDA-N.
Consider `CCOP(=O)(COCCn1nc(Br)c(=O)[nH]c1=O)OCC`, for which the TGI in the test with SW-620 colon, in the test with LOX IMVI melanoma, in the test on EKVX NSCLC, with ACHN renal, in the test with SF-539 CNS and in the test on K-562 leukemia was > 100 µM throughout. Besides, the TGI in the test with MALME-3M melanoma, in the test on MDA-MB-435 and with MDA-N was > 100 µM throughout.
